Article PMC6300878, “In vitro antiplasmodial activity, pharmacokinetic profiles and interference in isoprenoid pathway of 2-aniline-3-hydroxy-1.4-naphthoquinone derivatives” (Malaria Journal, 2018)

Experiments:
[1] = cited from earlier work
[2] = solution with a maximum of 1% DMSO
Plasmodium berghei = tested on: Plasmodium berghei; parameters: method as in PMID 23850202; settings: murine Plasmodium berghei model; cited from earlier work
[3] = tested on: tocopherol (TC) biosynthesis
Experimental: (§1) A flask was kept untreated and is considered the positive control. After 36 h, the culture was labeled with [1-(n)-^3H]GGPP (3.125 µCi/ml) in normal RPMI 1640 medium [32] during the last 16 h. The schizonts were purified by magnetic column (MACS Separation Columns “CS”, Miltenyi Biotec) [33]. The parasitaemia was estimated by microscopic examination of Giemsa-stained smears and the volume was adjusted of purified culture, according to the control, so that equal numbers of treated and untreated parasites were applied. After metabolic labelling and purification, lyophilized schizonts were used for extraction of MQ and TC. The final extract was injected into the HPLC-RT [34].
(§2) The molecules of MQ and TC were purified by an isocratic system with mobile phase methanol: ethanol (50:50 v/v), flow 0.5 ml/min and detection performed by UV absorption spectrum at a wavelength equal to 270 nm. The mobile phase was filtered on a PTFE (solvent A) and NYLON (solvent B) membrane of 0.20 µM. Radioactive fractions were dried by evaporation at 24 °C and resuspended in scintillation fluid. Quantification of the radioactivity (c.p.m.) was performed on the device Beckman 5000 β-radiation scintillation counter (Beckman, CA, USA) [34].
(§3) The IC50 was estimated by linear interpolation as compared to the drug-free controls, using the software GraphPad PRISM software. […]

[4] = tested on: menaquinone (MQ) biosynthesis
Experimental: as §1, §2, §3

In the case of `O=C1C(O)=C([C@H]2CC[C@H](c3ccc(Cl)cc3)CC2)C(=O)c2ccccc21` [atovaquone], the “Binding to plasma proteins” value [1] is given as “high binding to plasma proteins”, the Bioavailability [1] is given as “low bioavailability” and the “Biopharmaceutics Classification (BCS) class” value [1] is given as “class II”.
In the case of `O=C1C(O)=C(Nc2ccccc2)C(=O)c2ccccc21` [4a], the Solubility [2] is given as “soluble” and the “Antiplasmodial activity in vivo” value (Plasmodium berghei) is given as “interesting antiplasmodial activity”.
For `COc1ccc(NC2=C(O)C(=O)c3ccccc3C2=O)cc1` [4c], the Solubility [2] is given as “soluble”, the “Antiplasmodial activity in vivo” value (Plasmodium berghei) is given as “interesting antiplasmodial activity” and the inhibition [3] is given as 49.6%. For the same compound, the inhibition [4] was 58.1%.
